# Where two headings read alike, the source gives them in different places.
# Experiments:
# [1] = tested on: Tetrahymena thermophila B1868VII
# Procedure: (§1) Fermentations were carried out in a 1 l fermenter (700 ml working volume), 5 l fermenter (3 l working volume) and a 13 l fermenter (10 l working volume). The fermenters were equipped as standard with a pH electrode, a pO2 electrode, an aeration ring, a stirrer shaft with disk vein agitator, feed line for acid/alkali, feed line for feeding, inoculation fittings and sampling.
# (§2) Fermentation conditions were as specified in Table 2.
# (§3) To determine the biomass dry matter, 5 ml of cell culture were centrifuged for 10 min at 3400 g and 4° C., the supernatant was decanted and the cell pellet was frozen at −80° C. The frozen biomass was lyophilized and the weight of the biomass dry matter was determined.
# (§4) The cell density was determined using the CASY 1 Cell Counter+Analyser System, Model TTC, Schärfe System. For measurement, the cells were diluted (1:500) in a weak CASY electrolyte solution and transported through a capillary of 150 μm diameter. The cells in a range of 15-50 μm particle size were counted.
# (§5) The nonpolar lipid constituents (neutral lipids) were extracted from the biomass dry matter with n-hexane. For one batch, approximately 500 mg of biomass dry matter were stirred in 5 ml of n-hexane for 1 h at 60° C., then centrifuged for 2 min at 2700 g and the supernatant was purified by filtering off suspended matter. For the filtration, a Pasteur Pipette filled with cotton wool was used, having a fill height of approximately 1 cm. The cell residue for the first extraction was extracted a further time with 5 ml of solvent, the biomass was centrifuged off and the supernatant filtered. The purified organic phases of the two extractions were combined, the solvent was completely evaporated on a rotary evaporator and the amount of extracted lipid was determined by weighing.
# (§6) The fatty acid spectrum was determined by means of a gas chromatograph (HP GC 6890) equipped with a flame ionization detector (Hewlett-Packard Company, Wilmington, USA). The column used was an FFAP (Free Fatty Acid Phase) Permbond (Macherey & Nagel GmbH, Düren). The fatty acids were identified by comparison with the retention times of fatty acid methyl ester standards. On the basis of the known concentration of the standard, the concentration of fatty acids in the samples could be determined.
# (§7) 30-70 mg of the lyophilized biomass dry matter (see determination of biomass) were weighed out and were admixed with 1 ml of 20% strength methanolic HCl and 1 ml of methanolic standard solution (1 mg/ml). To liberate the fatty acids and transesterify them into fatty acid methyl esters, the samples were stirred in a closed test tube for two hours at 60° C. in a water bath and cooled to room temperature. To neutralize the sample, 1 ml of aqueous saturated sodium hydrogen carbonate solution was then added and the sample was mixed carefully. The fatty acid methyl esters were extracted by adding n-hexane. The batch was then mixed vigorously and phase separation was achieved by centrifuging for 2 min at 4300 rpm. About ⅔ of the upper organic phase was taken off and 1 μl of the sample was injected onto the GC column and analyzed (see also Table 5).
# (§8) The fermentations were carried out in a 1-l fermenter containing 700 ml of MM-Var medium.
# [2] = tested on: Tetrahymena thermophila B1868VII; details: for lipid content versus standard fermentation: NaAc feed
# Procedure: as §1, §2, §3, §4, §5, §6, §7, §8
# Tetrahymena pyriformis = details: cited from earlier work
# Tetrahymena = details: supplying acetate; cited from earlier work
# [3] = acetate added before inoculation and also during culture
smiles,measurement,setting,value
"CC(=O)[O-].[Na+] [NaAc, sodium acetate]",cell growth (cell density and biomass dry matter),[1],adversely affected cell growth
same,formation of GLA product by volume,[1],decreased
same,GLA content of the biomass dry matter,[1]; 0.5 and 1.0 g/l NaAc in basal medium,not altered
same,NL/BDM,"[1]; MM-VAR containing 0.5 g/l of NaAc, 46 h",8 %(w/w)
same,NL/BDM,"[1]; MM-VAR containing 0.5 g/l of NaAc, 70 h",17 %(w/w)
same,NL/BDM,"[1]; MM-VAR containing 1.0 g/l of NaAc, 46 h",11 %(w/w)
same,NL/BDM,"[1]; MM-VAR containing 1.0 g/l of NaAc, 70 h",17 %(w/w)
same,GLA content in the neutral lipid versus standard fermentation,[1]; NaAc added to MM-Var basal medium,only slight differences
same,NL content,"[1]; NaAc added to MM-Var basal medium, after 70 h, standard […]%",17 % (w/w)
same,lipid content versus standard fermentation,"[1]; NaAc in basal medium, culture time 46 h",no significant difference
same,GLA yield overall,[1]; [3],impairment
same,fatty acid spectrum and GLA content of the biomass,[1]; [3],no marked change
same,growth,[1]; [3],poorer growth
same,cell growth (cell density and BDM),[2],adverse effect on the cell growth
same,formation of GLA product by volume,[2],impaired
same,NL/BDM,"[2]; Feed 0.02 g/l of NaAc, 46 h",8 %(w/w)
same,NL/BDM,"[2]; Feed 0.02 g/l of NaAc, 70 h",12 %(w/w)
same,NL/BDM,"[2]; Feed 0.4 g/l of NaAc, 46 h",9 %(w/w)
same,NL/BDM,"[2]; Feed 0.4 g/l of NaAc, 70 h",13 %(w/w)
same,GLA content of the biomass dry matter,[2]; NaAc fed during culturing,unchanged
same,lipid content versus standard fermentation,[2]; after 70 h,no significant increase
same,lipid content versus standard fermentation,[2]; culture time 46 h,no difference
same,cell count,"Tetrahymena pyriformis; 0.1% acetate added to basal medium which does not contain glucose, […]10^5 without",1.6×10^5 cells per ml
same,cell count,"Tetrahymena pyriformis; acetate, basal medium which contains glucose, 1.85×10^5 without",1.9×10^5 cells per ml
same,composition of the fatty acids,Tetrahymena,not changed
